These results are taken from patent US20100216706A1, “Ghrelin Protects Substantia Nigra Dopamine Neurons” (priority 2007, published 2010).

Several values for one entry are separate records, joined by “and”; a condition that tells them apart may be missing. Identical values can stand only once. *: point of attachment. Octyl = CCCCCCCC*

The conditions of data set [1]: Matsumoto et al., 2001; cited from earlier work.
Data set [2] can be described thus: Body weight gain after MPTP in ghrelin wt and ko mice. It counts as in vivo. The conditions noted are these: from day 1 to day 7 after MPTP. An excerpt: (§1) Control animals were given saline. Animals were sacrificed and perfused 7 days later and processed for immunohistochemistry or HPLC for dopamine (DA) and metabolites. n=8-10 for ghrelin wt and ko mice; n=6 for GHSR wt/wt, homo/wt and homo/TG.
Wt and ko mice treated with saline gained a similar amount of weight over the 7 days (wt saline 1.39±0.19 g vs ko saline 1.59±0.49 g).

The subject of another data set is TH neurons in the SNpc. The experiment in a line: MPTP-induced TH cell loss in the SNpc (stereology, optical fractionator). It counts as in vivo, mice.
From the text: as §1
TH cell quantification: Free floating sections were stained with TH (1:5000, Chemicon International) and visualized with DAB using standard procedures.
Unbiased stereology methods were used to quantify TH immunoreactive cells in the SNpc. Cells were visualized by a Zeiss microscope and relayed via a MicroFibre digital camera (www(dot)optronics(dot)com) to a computer where they were counted using the optical fractionator with the sophisticated Stereolnvestigator software (MicroBrightField, Williston, Vt., USA). Every fourth section was collected through the SNpc, and TH cells were counted in grids randomly positioned by the software in the outlined counting area through all optical planes, thus creating a 3 dimensional counting area.
(§2) The observation that ghrelin promotes SNpc DA neuronal function, mitochondrial respiration and number raises the possibility that ghrelin may protect nigrostriatal dopaminergic system during increased cellular stress. […] In brief, mice were treated with daily IP injections of exogenous ghrelin (10 nmols) or saline for 14 days. Mice were injected immediately before the dark phase, and food was removed overnight since calorie intake and postprandial increases in glucose and insulin can suppress the action of ghrelin (Cummings et al., 2006, Physiol Behav 89: 71-84). Both ghrelin and saline treated mice were given 3 grams of standard chow the following morning at 9 am. […] After the subsequent 7 days of treatment (saline or ghrelin), TH immunoreactive neurons were counted blind by two independent researchers using the non-biased optical fractionator on the stereology program, Stereoinvestigator.

The next data set deals with striatal dopamine. The data set is described as follows: Striatal dopamine after MPTP (HPLC). The settings on record: saline 14 days, MPTP on day 7. The data set is classed as in vivo, mice. How it is done: as §1
The samples were subsequently thawed in 0.4 ml of chilled 0.1 M perchloric acid and sonicated. Aliquots were taken for protein quantification using a spectrophotometric assay. Other aliquots were centrifuged, and DA levels were measured in supernatants by high pressure liquid chromatography (HPLC) with electrochemical detection. Concentrations of DA and metabolites were expressed as ng/mg protein (mean±SEM).
as §2

Data set [3] concerns the target growth hormone secretagogue receptor 1a (GHSR) on SNpc dopamine neurons, species of the tissue not stated for the experiment (mouse and/or rat). The data set is described as follows: cell-based or functional assay.

Turning to “5-aminopentanoyl-Ser(Octyl)-Phe-Leu-aminoethylamide ({5‑aminopentanoyl}-Ser(Octyl)-Phe-Leu-aminoethylamide; also: acylation site at position 3; listed as Homo sapiens)”, the Ghrelin activity entry in data set [1] is “potent ghrelin activity”.
For `CN1CC=C(c2ccccc2)CC1` [MPTP, 1-methyl-4-phenyl-1,2,5,6 tetrahydropyridine], the “Body weight gain, ghrelin ko mice” value in data set [2] (ko saline 1.59±0.49) is 1.37 ± 0.15 g. In addition, the “Body weight gain, ghrelin wt mice” value in data set [2] (wt saline 1.39±0.19) is 2.16 ± 0.10 g and 2.17 ± 0.10 g. In addition, the “TH-immunoreactive cells in SNpc, ghrelin−/− mice” value in the data set with TH neurons in the SNpc (MPTP 30 mg/kg IP, 7 days, ko saline 8580±78) was 3691±550. Moreover, the “TH-immunoreactive cells in SNpc, ghrelin+/+ mice” value in the data set on TH neurons in the SNpc (MPTP 30 mg/kg IP, 7 days, wt saline 9105±342) is 6688±610. Further, the “TH neurons in SNpc, GHSR homo/TG (TH-only) mice” value with TH neurons in the SNpc (MPTP, homo/TG saline 12293±1123) worked out at 9401±743. Further, the “TH neurons in SNpc, GHSR homo/wt (null) mice” value in the data set with TH neurons in the SNpc (MPTP, homo/wt saline 11590±1133) is 6582±636. Besides, in the data set on TH neurons in the SNpc (MPTP, wt/wt saline 11902±713), the “TH neurons in SNpc, GHSR wt/wt mice” value came out at 9171±765. Further, the “Dopamine cell loss compared to controls, saline treatment after MPTP lesion” value in the data set on TH neurons in the SNpc (saline 14 days, MPTP on day 7) came to 49%. The “Total TH neurons in SNpc, sal/MPTP” value with TH neurons in the SNpc (wt mice, saline 14 days, MPTP 30 mg/kg IP on day 7, sal/sal 11283±342) came to 5750±432. Also, the “Loss of striatal dopamine vs controls, sal/MPTP” value in the data set on striatal dopamine was determined as 65%. Also, the “Striatal dopamine concentration, sal/MPTP” value in the data set on striatal dopamine (sal/sal 147.4±10.2) is 51.4±2.7 ng/mg protein.
“ghrelin (unlabeled, Phoenix Pharmaceuticals) (peptide)”: the action potential frequency of SNpc DA neurons (whole-cell current clamp, brain slices) in data set [3] was 132 % of control.
